# From patent US5340806A, “Composition containing organogermanium compound and immunity adjusting agent comprising the composition” (Sanwa Kagaku Kenkyusho Co., Ltd., priority 1984, dated 1994)
# Like-named read-outs stand apart in the source and are kept apart here.
# Key:
# [1] = system: NZB/W F1 mouse lymphocytes; assay: Antibody production in culture system of NZB/W F1 mouse lymphocytes; type: cell-based, NZB/W F1 male mice; settings: 1 to 2 μg/ml; FIG. 10a
# [2] = system: positive Arthus reaction in guinea pigs; assay: Positive Arthus reaction in guinea pig; type: in vivo, Hartley male guinea pigs; settings: 30 days, FIG. 11
# Method: To 2% egg albumin solution, the same amount of Freund's complete adjuvant was added to prepare an emulsion. The emulsion was injected in 4 times by one time/week to Hartley male guinea pigs at a heel, under the skin and in the femoralis muscle, for sensitization. After 10 days from the final sensitization, 0.1 ml of 1% egg albumin solution was injected under the skin of the back to measure the area of resulting edema. The organogermanium compound was orally dosed for 30 days from the first sensitization in an amount of 0.1, 1.0 and 10 mg/kg/day.
# [3] = system: adjuvant arthritis in rats; assay: Adjuvant arthritis in rats; type: in vivo, S.D. male rats; settings: 100 mg/kg/day oral, FIG. 12
# Method: 0.05 ml of an adjuvant (prepared by suspending 0.6 mg of micobacteriumbutircum into 0.05 ml of liquid paraffin) was injected under the skin of a hind leg heel in S.D. male rats. After 1, 3, 5, 7, 21, and 28 days from the adjuvant dosage, the volume of the dosed and non-dosed legs was measured to determine a ratio of the edema.
# The organogermanium compound was orally dosed for 28 days after the adjuvant dosage, in an amount of 1, 10 and 100 mg/kg/day, respectively.
# [4] = system: HIV (Human Immunodeficiency Virus); type: in vivo; settings: for OKT4/8 ratio: before 0.36±0.03; for OKT4-value: before 463±64/μl
# Method: Effects of the organogermanium compound are checked by giving the capsule obtained in Pharmaceutical Composition Preparing Example 7 to 6 patients infected by HIV (Human Immunodeficiency Virus), who are male hemophiliacs (Age: 6 to 22 years old) recognized as asymptomatic carriers, and among them 5 patients were positive to HIV and 1 patient was negative to HIV.
# To each patient, the capsule was given in a dose of 80 mg/day for the patients of 10 years old or over and 40 mg/1 day for the patients less than 10 years old, for 9 months. The number of blood lymphocytes, OKT4 -value, OKT8 -value and OKT4/8 ratio, as well as the change in the virus marker (HIV, HIV antigen and HIV antibody) in blood of the patients were monitored. The separation of the HIV was carried out in accordance with the CDC (Communicable Disease Center) method, and the measurement of the HIV antigen was carried out using the Western blotting method.
# [5] = parameters: species or system human; settings: in vivo
# Method: A capsule containing various amount of effective organogermanium compound were dosed to each of healthy adult persons to check kinetics of the drug. […] The excretion ratio of the drug in urine was 30-50% in cases of any dose.
# Therefore, it has been judged that the influence of the hepatitis on pharmakinetics of the drug is small.
# [6] = system: chronic non A non B hepatitis; assay: Chronic non A non B hepatitis, 15/30/60 mg/day, 12 weeks (Table 5B); type: in vivo, human patients
# Method: Search on utility or effectiveness of the organogermanium compound on patients who are infected with chronic B hepatitis, or with non A non B hepatitis, and show "positive" to HBe antigen as well as a preferable amount of dose thereof.
# The amount of dose has been set as follows, by taking the results given in In Vivo Utilization Example 1 into consideration.
# (a) 60 mg/day/body showing most preferable data in effectiveness,
# (b) 30 mg/day/body showing effectiveness in some Experiments, and
# (c) 15 mg/day/body (for taking control data).
# Experimental period of time was set for 12 weeks.
# (a) Examination of liver functions (GOT, GPT, total bilirubin, LDH, y-GTP, and y-globulin), and
# (b) Examination with use of HBV marker (HBe-Ag).
# chronic B hepatitis [7] = type: in vivo, human patients; settings: 30 mg/day
# Description: Utility or effectiveness of the organogermanium compound is checked in comparison with that of a placebo as a control. Interferons have widely been accepted as drugs for curing chronic hepatitis, but those are injectionally dosed. On the contrary, the organogermanium compound is orally dosed. In recent years, some oral medicines for curing liver diseases have been developed and the effectiveness thereof has been evaluated by using a placebo as its control. Therefore, the "placebo" is selected as the control for the evaluation of the organogermanium compound in question. (a) To patients with chronic B hepatitis: 30 mg/day/body. Experiment period of time was set for 16 weeks for the patients with chronic B hepatitis and for 12 weeks for the patients with non A and non B hepatitis.
# chronic B hepatitis [8] = assay: Chronic B hepatitis, 16 weeks, 30 mg/day/body (In Vivo Utilization Example 5); parameters: species or system human patients
substance,measurement,setting,value
3-oxygermylpropionic acid [Compound No. 1],antibody production ability,[1],an inhibition in antibody production ability
same,inhibition of phlegmasia (edema area),[2]; 0.1 mg/kg/day oral,a recognizable inhibition of the phlegmasia
same,inhibition of phlegmasia (edema area),[2]; 1 mg/kg/day oral,a recognizable inhibition of the phlegmasia
same,effect on secondary phlegmasia after 14 to 28 days,[3],an inhibition effect to a secondary phlegmasia
same,side-effect in clinical observation,[4]; 9 months,did not show any side-effect
same,OKT4/8 ratio,[4]; after 1 month,0.42±0.02
same,OKT4-value,[4]; after 2 months,549 ± 89 µL⁻¹
same,OKT4/8 ratio,[4]; after 3 months,0.51±0.06
same,OKT4/8 ratio,[4]; after 6 months,0.54±0.05
same,OKT4-value,[4]; after 6 months,629 ± 97 µL⁻¹
same,OKT8-value,"[4]; after 6 months, before 1303±174/μl",1154 ± 153 µL⁻¹
same,number of lymphocytes,"[4]; after 6 months, before 2430±311/μl",2349 ± 312 µL⁻¹
same,HIV disappeared (persons),"[4]; among 5 HIV positive patients, dosage over 6 months",3 persons
same,no change in virus marker (persons),"[4]; among 5 HIV positive patients, over 9 months",2 persons
same,change in OKT4-value,"[4]; human, in vivo",a certain increasing tendency
same,change in OKT4/8 ratio,"[4]; human, in vivo",a slow increase in the ratio
same,change in OKT8-value,"[4]; human, in vivo",a certain decreasing tendency
same,change in number of lymphocytes,"[4]; human, in vivo",No noticeable change
same,some increase in appetite and body weight (persons),"[4]; human, in vivo",2 persons
same,excretion ratio of the drug in urine,"[5]; human, po",30-50%
same,time to maximum plasma concentration,"[5]; human, po",3 h
same,AUC versus dose,[5],AUC increases as the amount of dose increases
same,"AUC, Cmax and excretion ratio in urine, hepatitis patients versus healthy persons",[5],tended to increase
same,plasma concentration on first day versus 7th day,[5],same level
same,tendency to accumulate,[5],does not show a tendency to accumulate
same,Effectiveness (slight or more),[6]; 15 mg/day,33%
same,General judgement: Improvement (slight or more),[6]; 15 mg/day,36%
same,Safety (quite),[6]; 15 mg/day,91%
same,Side effect,[6]; 15 mg/day,9.4%
same,Total bilirubin change,"[6]; 15 mg/day, 12 weeks",.dwnarw. *
same,γ-GPT change,"[6]; 15 mg/day, 12 weeks",.dwnarw. +
same,Effectiveness (slight or more),[6]; 30 mg/day,36%
same,General judgement: Improvement (slight or more),[6]; 30 mg/day,37%
same,Safety (quite),[6]; 30 mg/day,94%
same,Side effect,[6]; 30 mg/day,5.6%
same,Effectiveness (slight or more),[6]; 60 mg/day,55%
same,General judgement: Improvement (slight or more),[6]; 60 mg/day,57%
same,Safety (quite),[6]; 60 mg/day,95%
same,Side effect,[6]; 60 mg/day,5.4%
same,GOT change,"[6]; 60 mg/day, 12 weeks",.dwnarw. *
same,GPT change,"[6]; 60 mg/day, 12 weeks",.dwnarw. **
same,Total bilirubin change,"[6]; 60 mg/day, 12 weeks",.dwnarw. *
same,γ-GPT change,"[6]; 60 mg/day, 12 weeks",.dwnarw. *
same,γ-Globulin change,"[6]; 60 mg/day, 12 weeks",.dwnarw. *
same,A/G change,chronic B hepatitis [7],.uparw. **
same,GOT change,chronic B hepatitis [7],.dwnarw. ***
same,"GOT, test versus placebo",chronic B hepatitis [7],+ (S>P)
same,GPT change,chronic B hepatitis [7],.dwnarw. ***
same,"GPT, test versus placebo",chronic B hepatitis [7],* (S>P)
same,Globulin change,chronic B hepatitis [7],.dwnarw. ***
same,"Globulin, test versus placebo",chronic B hepatitis [7],+ (S>P)
same,HBe-AG (log conversion) change,chronic B hepatitis [7],.uparw. ***
same,"HBe-AG (log conversion), test versus placebo",chronic B hepatitis [7],* (S>P)
same,HBe-Ab change,chronic B hepatitis [7],.uparw. *
same,"HBe-Ab, test versus placebo",chronic B hepatitis [7],* (S>P)
same,Serum albumin change,chronic B hepatitis [7],.uparw. +
same,TTT change,chronic B hepatitis [7],.dwnarw. ***
same,Total cholesterol change,chronic B hepatitis [7],.uparw. *
same,"Total cholesterol, test versus placebo",chronic B hepatitis [7],* (S>P)
same,ZTT change,chronic B hepatitis [7],.dwnarw. **
same,γ-GPT change,chronic B hepatitis [7],.dwnarw. **
same,Improvement (objective),"chronic B hepatitis [7]; 16 weeks, placebo 13%",10%
same,Improvement (HBe Ag-Ab),"chronic B hepatitis [7]; 16 weeks, placebo 25%",51%
same,Improvement (sec. judgement),"chronic B hepatitis [7]; 16 weeks, placebo 29%",54%
same,Improvement (Doc. on duty),"chronic B hepatitis [7]; 16 weeks, placebo 31%",58%
same,Effectiveness (slight or more),"chronic B hepatitis [7]; 16 weeks, placebo 34%",63%
same,Improvement (general),"chronic B hepatitis [7]; 16 weeks, placebo 39%",66%
same,Improvement (self),"chronic B hepatitis [7]; 16 weeks, placebo 40%",53%
same,suppressor T lymph cell and other CD8 positive cells,chronic B hepatitis [8]; Two-color analysis,A significant reduction
same,HBe antigen,chronic B hepatitis [8]; after 8 and 12 weeks,A significant reduction of HBe antigen
same,HBe antibody,chronic B hepatitis [8]; after 8 weeks,Significant increase of HBe antibody
same,patients changed to SC,chronic B hepatitis [8]; among 33 HBe antigen positive,2 Patients
same,patients changed from positive to negative DNA-polymerase,"chronic B hepatitis [8]; end of experiment, 4 patients",14%
same,"improvement in liver functions, HBe antigen positive versus negative groups",chronic B hepatitis [8]; in vivo,no significant difference
same,ratio of improvement in functions of liver,chronic B hepatitis [8]; middle or more,30%
same,ratio of improvement in functions of liver,chronic B hepatitis [8]; slight or more,50%
